# Columns and labels:
# Assay in all cases: relative viability (nuclei count vs DMSO), 5 days (fraction); higher = more cells survive
# [1] = test system: 201T
# Procedure, shortened: (§1)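 Lung cancer cell lines, seeded in 1536-well plates, were treated the following day by pin tool with a single drug or with five library-drug doses (not always all listed) in √10 steps on top of a fixed anchor-drug dose. Cells were fixed and nuclei stained in one step after 5 days, and nuclei were counted. Relative viability is the nuclei count for treated wells divided by that for vehicle wells, reported as medians of duplicate plates.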
# [2] = test system: ABC-1
# Procedure, shortened: as §1
# [3] = test system: COR-L 105
# Procedure, shortened: as §1
# [4] = test system: COR-L23
# Procedure, shortened: as §1
# [5] = test system: EKVX
# Procedure, shortened: as §1
# [6] = test system: EPLC-272H
# Procedure, shortened: as §1
# [7] = test system: H3255
# Procedure, shortened: as §1
# [8] = test system: HCC-15
# Procedure, shortened: as §1
# [9] = test system: HCC-44
# Procedure, shortened: as §1
# [10] = test system: HCC-827
# Procedure, shortened: as §1
# [11] = test system: LCLC-103H
# Procedure, shortened: as §1
# [12] = test system: NCI-H1437
# Procedure, shortened: as §1
# [13] = test system: NCI-H1651
# Procedure, shortened: as §1
# [14] = test system: NCI-H1792
# Procedure, shortened: as §1
# [15] = test system: NCI-H1975
# Procedure, shortened: as §1
# [16] = test system: NCI-H2087
# Procedure, shortened: as §1
# [17] = test system: NCI-H358
# Procedure, shortened: as §1
# [18] = test system: NCI-H520
# Procedure, shortened: as §1
# [19] = test system: NCI-H647
# Procedure, shortened: as §1
# [20] = test system: NCI-H661
# Procedure, shortened: as §1
# [21] = test system: NCI-H727
# Procedure, shortened: as §1
# [22] = test system: NCI-H838
# Procedure, shortened: as §1
# [23] = test system: UMC-11
# Procedure, shortened: as §1
compound,measurement,setting,value
CCCCCCCCCCCC1=C(O)C(=O)C=C(O)C1=O [Embelin] + C[C@]1(O)C[C@@H](c2nc(-c3ccc4ccc(-c5ccccc5)nc4c3)c3c(N)nccn32)C1 [Linsitinib] (partner 1 µM),relative viability,[1]; first compound 0.08 µM,1.06
same,relative viability,[1]; first compound 0.8 µM,1.1
same,relative viability,[1]; first compound 2.53 µM,1.09
same,relative viability,[1]; first compound 8 µM,1.01
same,relative viability,[2]; first compound 0.08 µM,0.863
same,relative viability,[2]; first compound 0.8 µM,0.786
same,relative viability,[2]; first compound 2.53 µM,0.772
same,relative viability,[2]; first compound 8 µM,0.825
same,relative viability,[3]; first compound 0.08 µM,1.02
same,relative viability,[3]; first compound 0.8 µM,1.33
same,relative viability,[3]; first compound 2.53 µM,0.88
same,relative viability,[3]; first compound 8 µM,0.874
same,relative viability,[4]; first compound 0.08 µM,0.896
same,relative viability,[4]; first compound 0.8 µM,1.08
same,relative viability,[4]; first compound 2.53 µM,0.962
same,relative viability,[4]; first compound 8 µM,1.05
same,relative viability,[5]; first compound 0.08 µM,0.967
same,relative viability,[5]; first compound 0.8 µM,1.09
same,relative viability,[5]; first compound 2.53 µM,1.2
same,relative viability,[5]; first compound 8 µM,1.06
same,relative viability,[6]; first compound 0.08 µM,1.31
same,relative viability,[6]; first compound 0.8 µM,1.48
same,relative viability,[6]; first compound 2.53 µM,1.32
same,relative viability,[6]; first compound 8 µM,1.03
same,relative viability,[7]; first compound 0.08 µM,1
same,relative viability,[7]; first compound 0.8 µM,1.23
same,relative viability,[7]; first compound 2.53 µM,0.931
same,relative viability,[7]; first compound 8 µM,0.922
same,relative viability,[8]; first compound 0.08 µM,0.922
same,relative viability,[8]; first compound 0.8 µM,0.895
same,relative viability,[8]; first compound 2.53 µM,0.996
same,relative viability,[8]; first compound 8 µM,0.905
same,relative viability,[9]; first compound 0.08 µM,0.739
same,relative viability,[9]; first compound 0.8 µM,0.654
same,relative viability,[9]; first compound 2.53 µM,0.742
same,relative viability,[9]; first compound 8 µM,0.642
same,relative viability,[10]; first compound 0.08 µM,0.997
same,relative viability,[10]; first compound 0.8 µM,0.949
same,relative viability,[10]; first compound 2.53 µM,0.992
same,relative viability,[10]; first compound 8 µM,1.01
same,relative viability,[11]; first compound 0.08 µM,1.03
same,relative viability,[11]; first compound 0.8 µM,1.11
same,relative viability,[11]; first compound 2.53 µM,1.1
same,relative viability,[11]; first compound 8 µM,1.03
same,relative viability,[12]; first compound 0.08 µM,1.01
same,relative viability,[12]; first compound 0.8 µM,1.1
same,relative viability,[12]; first compound 2.53 µM,1.24
same,relative viability,[12]; first compound 8 µM,0.76
same,relative viability,[13]; first compound 0.08 µM,0.955
same,relative viability,[13]; first compound 0.8 µM,1.1
same,relative viability,[13]; first compound 2.53 µM,1.04
same,relative viability,[13]; first compound 8 µM,0.878
same,relative viability,[14]; first compound 0.08 µM,0.589
same,relative viability,[14]; first compound 0.8 µM,0.607
same,relative viability,[14]; first compound 2.53 µM,0.72
same,relative viability,[14]; first compound 8 µM,0.434
same,relative viability,[15]; first compound 0.08 µM,0.976
same,relative viability,[15]; first compound 0.8 µM,0.994
same,relative viability,[15]; first compound 2.53 µM,1.04
same,relative viability,[15]; first compound 8 µM,0.973
same,relative viability,[16]; first compound 0.08 µM,0.998
same,relative viability,[16]; first compound 0.8 µM,0.97
same,relative viability,[16]; first compound 2.53 µM,1.01
same,relative viability,[16]; first compound 8 µM,0.916
same,relative viability,[17]; first compound 0.08 µM,0.691
same,relative viability,[17]; first compound 0.8 µM,0.908
same,relative viability,[17]; first compound 2.53 µM,0.92
same,relative viability,[17]; first compound 8 µM,0.842
same,relative viability,[18]; first compound 0.08 µM,1
same,relative viability,[18]; first compound 0.8 µM,0.849
same,relative viability,[18]; first compound 2.53 µM,0.869
same,relative viability,[18]; first compound 8 µM,1.03
same,relative viability,[19]; first compound 0.08 µM,1.31
same,relative viability,[19]; first compound 0.8 µM,1.27
same,relative viability,[19]; first compound 2.53 µM,1.32
same,relative viability,[19]; first compound 8 µM,1.28
same,relative viability,[20]; first compound 0.08 µM,0.635
same,relative viability,[20]; first compound 0.8 µM,0.717
same,relative viability,[20]; first compound 2.53 µM,0.546
same,relative viability,[20]; first compound 8 µM,0.623
same,relative viability,[21]; first compound 0.08 µM,0.282
same,relative viability,[21]; first compound 0.8 µM,0.192
same,relative viability,[21]; first compound 2.53 µM,0.307
same,relative viability,[21]; first compound 8 µM,0.268
same,relative viability,[22]; first compound 0.08 µM,1.06
same,relative viability,[22]; first compound 0.8 µM,1.13
same,relative viability,[22]; first compound 2.53 µM,1.03
same,relative viability,[22]; first compound 8 µM,1.07
same,relative viability,[23]; first compound 0.08 µM,1.03
same,relative viability,[23]; first compound 0.8 µM,1.08
same,relative viability,[23]; first compound 2.53 µM,1.11
same,relative viability,[23]; first compound 8 µM,0.984
CCCCCCCCCCCC1=C(O)C(=O)C=C(O)C1=O [Embelin] + Cc1nc(NC(=O)N2CCC[C@H]2C(N)=O)sc1-c1ccnc(C(C)(C)C(F)(F)F)c1 [Alpelisib] (partner 2 µM),relative viability,[1]; first compound 0.08 µM,0.979
same,relative viability,[1]; first compound 0.8 µM,1.03
same,relative viability,[1]; first compound 2.53 µM,0.981
same,relative viability,[1]; first compound 8 µM,0.971
same,relative viability,[2]; first compound 0.08 µM,1.24
same,relative viability,[2]; first compound 0.8 µM,1.1
same,relative viability,[2]; first compound 2.53 µM,0.996
same,relative viability,[2]; first compound 8 µM,1.18
same,relative viability,[3]; first compound 0.08 µM,0.951
same,relative viability,[3]; first compound 0.8 µM,1.15
same,relative viability,[3]; first compound 2.53 µM,0.968
same,relative viability,[3]; first compound 8 µM,1.31
same,relative viability,[4]; first compound 0.08 µM,0.872
same,relative viability,[4]; first compound 0.8 µM,1.11
same,relative viability,[4]; first compound 2.53 µM,0.874
same,relative viability,[4]; first compound 8 µM,0.777
same,relative viability,[5]; first compound 0.08 µM,0.849
same,relative viability,[5]; first compound 0.8 µM,0.914
same,relative viability,[5]; first compound 2.53 µM,0.999
same,relative viability,[5]; first compound 8 µM,0.823
same,relative viability,[6]; first compound 0.08 µM,0.963
same,relative viability,[6]; first compound 0.8 µM,1.21
same,relative viability,[6]; first compound 2.53 µM,0.908
same,relative viability,[6]; first compound 8 µM,0.933
same,relative viability,[7]; first compound 0.08 µM,0.935
same,relative viability,[7]; first compound 0.8 µM,0.804
same,relative viability,[7]; first compound 2.53 µM,0.766
same,relative viability,[7]; first compound 8 µM,0.653
same,relative viability,[8]; first compound 0.08 µM,0.882
same,relative viability,[8]; first compound 0.8 µM,0.864
same,relative viability,[8]; first compound 2.53 µM,0.957
same,relative viability,[8]; first compound 8 µM,0.995
same,relative viability,[9]; first compound 0.08 µM,0.781
same,relative viability,[9]; first compound 0.8 µM,0.767
same,relative viability,[9]; first compound 2.53 µM,0.895
same,relative viability,[9]; first compound 8 µM,1
same,relative viability,[10]; first compound 0.08 µM,1.03
same,relative viability,[10]; first compound 0.8 µM,0.929
same,relative viability,[10]; first compound 2.53 µM,1.07
same,relative viability,[10]; first compound 8 µM,0.961
same,relative viability,[11]; first compound 0.08 µM,1.07
same,relative viability,[11]; first compound 0.8 µM,1.02
same,relative viability,[11]; first compound 2.53 µM,1.02
same,relative viability,[11]; first compound 8 µM,0.866
same,relative viability,[12]; first compound 0.08 µM,0.916
same,relative viability,[12]; first compound 0.8 µM,1.05
same,relative viability,[12]; first compound 2.53 µM,1.32
same,relative viability,[12]; first compound 8 µM,0.697
same,relative viability,[13]; first compound 0.08 µM,0.939
same,relative viability,[13]; first compound 0.8 µM,0.971
same,relative viability,[13]; first compound 2.53 µM,0.945
same,relative viability,[13]; first compound 8 µM,0.873
same,relative viability,[14]; first compound 0.08 µM,0.718
same,relative viability,[14]; first compound 0.8 µM,0.764
same,relative viability,[14]; first compound 2.53 µM,0.785
same,relative viability,[14]; first compound 8 µM,0.588
same,relative viability,[15]; first compound 0.08 µM,0.663
same,relative viability,[15]; first compound 0.8 µM,0.674
same,relative viability,[15]; first compound 2.53 µM,0.696
same,relative viability,[15]; first compound 8 µM,0.674
same,relative viability,[16]; first compound 0.08 µM,0.988
same,relative viability,[16]; first compound 0.8 µM,1.13
same,relative viability,[16]; first compound 2.53 µM,1.03
same,relative viability,[16]; first compound 8 µM,1.08
same,relative viability,[17]; first compound 0.08 µM,0.852
same,relative viability,[17]; first compound 0.8 µM,0.958
same,relative viability,[17]; first compound 2.53 µM,1.09
same,relative viability,[17]; first compound 8 µM,0.918
same,relative viability,[18]; first compound 0.08 µM,1.05
same,relative viability,[18]; first compound 0.8 µM,1.06
same,relative viability,[18]; first compound 2.53 µM,0.896
same,relative viability,[18]; first compound 8 µM,0.901
same,relative viability,[19]; first compound 0.08 µM,1.29
same,relative viability,[19]; first compound 0.8 µM,1.15
same,relative viability,[19]; first compound 2.53 µM,1.45
same,relative viability,[19]; first compound 8 µM,1.28
same,relative viability,[20]; first compound 0.08 µM,0.612
same,relative viability,[20]; first compound 0.8 µM,0.97
same,relative viability,[20]; first compound 2.53 µM,0.92
same,relative viability,[20]; first compound 8 µM,0.756
same,relative viability,[21]; first compound 0.08 µM,0.629
same,relative viability,[21]; first compound 0.8 µM,0.57
same,relative viability,[21]; first compound 2.53 µM,0.578
same,relative viability,[21]; first compound 8 µM,0.511
same,relative viability,[22]; first compound 0.08 µM,1.01
same,relative viability,[22]; first compound 0.8 µM,1
same,relative viability,[22]; first compound 2.53 µM,1.12
same,relative viability,[22]; first compound 8 µM,1.11
same,relative viability,[23]; first compound 0.08 µM,0.969
same,relative viability,[23]; first compound 0.8 µM,1.07
same,relative viability,[23]; first compound 2.53 µM,1.24
same,relative viability,[23]; first compound 8 µM,1.2

# — the supplement of paper PMC10307832
